PMC5018964, “Visualization and ligand-induced modulation of dopamine receptor dimerization at the single molecule level” (Scientific Reports, 2016)

T1: human dopamine D2L receptor (wild type, non-tagged) (human), P14416
T1 chain: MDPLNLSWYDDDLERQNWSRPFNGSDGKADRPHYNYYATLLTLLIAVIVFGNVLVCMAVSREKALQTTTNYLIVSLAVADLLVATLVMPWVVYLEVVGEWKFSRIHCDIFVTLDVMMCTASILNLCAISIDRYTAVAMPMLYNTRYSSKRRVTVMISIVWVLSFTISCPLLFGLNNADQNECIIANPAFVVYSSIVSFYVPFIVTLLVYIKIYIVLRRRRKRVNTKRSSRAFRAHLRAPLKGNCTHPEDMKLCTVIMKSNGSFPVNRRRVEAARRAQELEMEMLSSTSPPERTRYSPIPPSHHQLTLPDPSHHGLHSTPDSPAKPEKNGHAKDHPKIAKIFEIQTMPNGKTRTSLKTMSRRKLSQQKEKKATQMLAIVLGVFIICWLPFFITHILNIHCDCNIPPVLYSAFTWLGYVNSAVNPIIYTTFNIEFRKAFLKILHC

B1: human dopamine D3 receptor (receptor, UniProt P35462 1-400, looked up)
chain: MASLSQLSGHLNYTCGAENSTGASQARPHAYYALSYCALILAIVFGNGLVCMAVLKERALQTTTNYLVVSLAVADLLVATLVMPWVVYLEVTGGVWNFSRICCDVFVTLDVMMCTASILNLCAISIDRYTAVVMPVHYQHGTGQSSCRRVALMITAVWVLAFAVSCPLLFGFNTTGDPTVCSISNPDFVIYSSVVSFYLPFGVTVLVYARIYVVLKQRRRKRILTRQNSQCNSVRPGFPQQTLSPDPAHLELKRYYSICQDTALGGPGFQERGGELKREEKTRNSLSPTIAPKLSLEVRKLSNGRLSTSLKLGPLQPRGVPLREKKATQMVAIVLGAFIVCWLPFFLTHVLNTHCQTCHVSPELYSATTWLGYVNSALNPVIYTTFNIEFRKAFLKILSC
notes: human dopamine D3 receptor, non-tagged; source: dihydrofolate reductase gene-deficient CHO-K1 cells, stably expressing, in the membrane of living cells
B2: human dopamine D2S receptor (receptor, UniProt P14416-2 1-414, looked up)
chain: MDPLNLSWYDDDLERQNWSRPFNGSDGKADRPHYNYYATLLTLLIAVIVFGNVLVCMAVSREKALQTTTNYLIVSLAVADLLVATLVMPWVVYLEVVGEWKFSRIHCDIFVTLDVMMCTASILNLCAISIDRYTAVAMPMLYNTRYSSKRRVTVMISIVWVLSFTISCPLLFGLNNADQNECIIANPAFVVYSSIVSFYVPFIVTLLVYIKIYIVLRRRRKRVNTKRSSRAFRAHLRAPLKEAARRAQELEMEMLSSTSPPERTRYSPIPPSHHQLTLPDPSHHGLHSTPDSPAKPEKNGHAKDHPKIAKIFEIQTMPNGKTRTSLKTMSRRKLSQQKEKKATQMLAIVLGVFIICWLPFFITHILNIHCDCNIPPVLYSAFTWLGYVNSAVNPIIYTTFNIEFRKAFLKILHC
notes: human dopamine D2S receptor (short form of the D2 receptor), non-tagged; source: CHO-K1, stably expressing, in the membrane of living cells
B3: human dopamine D2L receptor (wild type, non-tagged), P14416 1-443 (receptor)
chain: MDPLNLSWYDDDLERQNWSRPFNGSDGKADRPHYNYYATLLTLLIAVIVFGNVLVCMAVSREKALQTTTNYLIVSLAVADLLVATLVMPWVVYLEVVGEWKFSRIHCDIFVTLDVMMCTASILNLCAISIDRYTAVAMPMLYNTRYSSKRRVTVMISIVWVLSFTISCPLLFGLNNADQNECIIANPAFVVYSSIVSFYVPFIVTLLVYIKIYIVLRRRRKRVNTKRSSRAFRAHLRAPLKGNCTHPEDMKLCTVIMKSNGSFPVNRRRVEAARRAQELEMEMLSSTSPPERTRYSPIPPSHHQLTLPDPSHHGLHSTPDSPAKPEKNGHAKDHPKIAKIFEIQTMPNGKTRTSLKTMSRRKLSQQKEKKATQMLAIVLGVFIICWLPFFITHILNIHCDCNIPPVLYSAFTWLGYVNSAVNPIIYTTFNIEFRKAFLKILHC

How the values were obtained:
[1] = target: T2, human D2L (Homo sapiens, UniProt P14416); test: [3H]spiperone competition/saturation binding, membranes of CHO cells expressing human D2L; settings: [³H]spiperone competition, CHO cell membranes; read-out: Ki ± s.d. hD2L
T2 construct: expressed in transfected cells

[2] = target: T3, human D2S (Homo sapiens, UniProt P14416); test: [3H]spiperone competition/saturation binding, membranes of CHO cells expressing human D2S; settings: [³H]spiperone competition, CHO cell membranes; read-out: Ki ± s.d. hD2S
T3 construct: expressed in transfected cells

[3] = target: T4, human D3 (Homo sapiens, UniProt P35462); test: [3H]spiperone competition/saturation binding, membranes of CHO cells expressing human D3; settings: [³H]spiperone competition, CHO cell membranes; read-out: Ki ± s.d. hD3
T4 construct: expressed in transfected cells

[4] = target: T5, SNAP-D2L receptor (Homo sapiens, UniProt P14416); test: Single-molecule TIRF-M of SNAP-D2L receptors in CHO cells with ligands (dimerization, mobility, colocalization); assay type: cell-based; settings: for effect on monomer/dimer ratio and mobility of the SNAP-D2L receptor compared to ligand-free conditions: Alexa546-labeled SNAP-D2L in CHO cells incubated with ligand; for Average Dlat 24°C (average lateral diffusion coefficient) / Density (spots µm-2) / fraction of dimers: SNAP-D2L in CHO cells; for Average Dlat 24°C (average lateral diffusion coefficient) / Density (spots µm-2): mean ± s.d.; for mean apparent colocalization lifetime τ of two receptors in a dimer: SNAP-D2L incubated with ligand, one-phase exponential decay fit, 120 trajectories, ligand free 0.46 s; for fraction of dimers: 10-fold Ki, ligand-free 30%
T5 construct: expressed in transfected cells
Description: 24 h before the TIRF-experiment dried and cleaned glass slides were placed in a 12 well plate and were coated by incubation with 20 μg ml^−1 fibronectin (Sigma–Aldrich) in sterile PBS for 1 h at 37 °C. After coating, fibronectin was aspirated and the glass surface was rinsed one time with sterile PBS. CHO cells expressing SNAP-D2L, SNAP-CD86, SNAP-CD28, D2L, D2S or D3 receptors were seeded on coated glass slides in phenol-red-free DMEM/F12 supplemented with 10% FCS and were allowed to adhere overnight at 37 °C and 5% CO2.
Subsequently, cells were washed three times with phenol red-free DMEM/F12 supplemented with 10% FBS, each time followed by 5 min incubation at 37 °C.
For the ligand treatment experiments, the indicated concentration of the corresponding ligand in phenol red-free DMEM/F12 supplemented with 10% FBS were added to stably transfected CHO cells, which were ready for imaging, for 1 h before imaging.
Subsequently after labeling, cells were washed three times with phenol red-free DMEM/F12 supplemented with 10% FBS. […] Finally the imaging chamber was refilled with fresh imaging buffer and mounted immediately on a microscope stage for TIRF-M imaging.
The microscope control and image acquisition were performed by the NIS Elements software (Nikon Instruments). To ensure homogenous illumination, only the central quarter of the chip (300 × 300 pixel) was used for imaging analysis.
The image analysis procedures have been described in detail previously. An automated single particle tracking (ASPT) algorithm[58] implemented in custom-written software, GMimPro (www.mashanov.uk), was used to identify and track individual fluorescent spots on sequential video frames. ASPT settings used were FWHM300nm, R5, L20, Q10 and C999. Output from this image analysis gave fluorophore centroid positions (with 25 nm precision), integrated fluorophore intensities, total fluorophore number and trajectory lifetime. Spatial trajectories and intensity trajectories (i.e. intensities vs. time) were then further analysed to determine: the lateral diffusion coefficient, Dlat, which was derived from averaged mean squared displacement (MSD) versus time interval (δt), the average fluorescent spot density (spot μm^−^2) and distribution across the cell membrane and the intensity distribution of individual fluorescent spots and intensity fluctuation with time as well as the lifetime of colocalization. The Dlat was measured for each cell separately and the average value (average Dlat, mean ± standard deviation (s.d.)) was calculated for an indicated number of cells. Slow-moving objects Dlat < 0.02 μm^2 s^−1 were excluded from the analysis and only cells with a mobile trajectory fraction (trajectories with a Dlat > 0.02 μm^2 s^−1) over 0.75 were used for further analysis. Intensity distributions of fluorescent spots identified over the first 10-frame time window of TIRF illumination were fitted with a sum of Gaussian distributions (with standard deviation proportional to square root of intensity level) using the PRISM routine. The ratio of the areas under the Gaussian curves was calculated to give the percentage of the underlying component. Unpaired two-tailed Student´s t-tests were used for statistical significance.

[5] = target: SNAP-D2L receptors (Homo sapiens, UniProt P14416+P16455, A127T/A154D/C150Q/C62A/E30R/G131K/G132T/G153L/K125A/K32I/L33F/M134L/N157G/Q115S/Q116H/R128A/R135S/S151G/S152D/S159E); test: [3H]spiperone competition/saturation binding, membranes of CHO cells expressing SNAP-D2L
SNAP-D2L receptors, sequence (P16455+P14416 fused with the stated changes): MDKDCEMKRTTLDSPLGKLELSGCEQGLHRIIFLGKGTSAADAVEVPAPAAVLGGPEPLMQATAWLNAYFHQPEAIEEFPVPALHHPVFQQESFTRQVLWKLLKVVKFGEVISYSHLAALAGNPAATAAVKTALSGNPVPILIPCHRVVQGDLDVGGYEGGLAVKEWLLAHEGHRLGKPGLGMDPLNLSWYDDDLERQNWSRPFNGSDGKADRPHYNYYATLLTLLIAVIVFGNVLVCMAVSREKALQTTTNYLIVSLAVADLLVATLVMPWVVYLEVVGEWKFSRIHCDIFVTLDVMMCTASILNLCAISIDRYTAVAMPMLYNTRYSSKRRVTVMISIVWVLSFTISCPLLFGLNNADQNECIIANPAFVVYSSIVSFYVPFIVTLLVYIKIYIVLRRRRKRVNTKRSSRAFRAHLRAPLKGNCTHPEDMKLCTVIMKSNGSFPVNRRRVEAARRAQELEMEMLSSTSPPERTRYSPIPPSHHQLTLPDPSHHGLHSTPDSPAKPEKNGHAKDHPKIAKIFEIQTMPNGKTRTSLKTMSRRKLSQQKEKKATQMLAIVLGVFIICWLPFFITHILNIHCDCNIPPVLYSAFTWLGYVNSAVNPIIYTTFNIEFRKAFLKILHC
Description: Membrane preparations were obtained using the methods described previously[50]. […] The homogenized membranes were shock-frozen in liquid nitrogen and stored at −80 °C until usage. The protein concentration was determined by the Lowry method[51] using bovine serum albumin as a standard.
Receptor binding studies were carried out as described previously[27][50][52]. […] The Ki values for the compounds were obtained by competition experiments.
Analysis of the saturation experiments were performed using a nonlinear regression analysis of the data for the determination of KD and Bmax values using PRISM (GraphPad Software). Competition curves were fitted to a sigmoid curve by nonlinear regression analysis in which the log IC50 value and the Hill coefficient were free parameters. IC50 values were transformed to Ki values according to the equation of Cheng and Prusoff [53].

[6] = target: the molecule itself; test: single-molecule TIRF microscopy (intensity distribution of fluorescent spots); receptors on living CHO cells labelled 1 h at 37 °C with a fluorescent (Cy3B) antagonist (1c, 4a or 4b) at 10-fold Ki; spots fitted with a mixed Gaussian model
[7] = target: T1, human dopamine D2L receptor (wild type, …); test: as above; settings: remark: other sources report otherwise
[8] = target: T1, human dopamine D2L receptor (wild type, …); test: single-molecule TIRF microscopy (intensity distribution of fluorescent spots); receptors on living CHO cells labelled 1 h at room temperature with a fluorescent (Cy3B) agonist (5a or 5b) at 10-fold Ki; spots fitted with a mixed Gaussian model; settings: remark: other sources report otherwise
[9] = 10 x Ki value labeling concentration
[10] = 100 x Ki value labeling concentration

Row | Molecule | Ki [1] [nM] | Ki [2] [nM] | Ki [3] [nM] | Average Dlat 24°C (average lateral diffusion coefficient) [4, 9] [µm² s-1] | Density (spots µm-2) [4, 9] [spots µm-2] | Average Dlat 24°C (average lateral diffusion coefficient) [4, 10] [µm² s-1] | Density (spots µm-2) [4, 10] [spots µm-2] | Ki [5] [nM] | further results
1 | CCCCn1cc(CCCOc2ccc(CN3CCN(c4ccccc4OC)CC3)cc2OC)nn1 [1a] | 67 ± 33 | 53 ± 37 | 615 ± 370 | 0.087 ± 0.003 | 0.68 ± 0.04 | 0.083 ± 0.005 | 0.69 ± 0.03 | 280 ± 190 | effect on monomer/dimer ratio and mobility of the SNAP-D2L receptor compared to ligand-free conditions [4]: no effect; mean apparent colocalization lifetime τ of two receptors in a dimer [4]: 0.42 s
2 | CCCCn1cc(CCCOc2ccc(CN3CCN(c4ccccc4OC)CC3)cc2OCCCCN)nn1 [1b] | 15 ± 8 | 18 ± 5.7 | 70 ± 24 | 0.085± 0.004 | 0.66 ± 0.04 | 0.081 ± 0.006 | 0.69 ± 0.04 | 4.8 ± 0.28 | effect on monomer/dimer ratio and mobility of the SNAP-D2L receptor compared to ligand-free conditions [4]: no effect
3 | COc1cc(CN2CCN(c3ccccc3OC)CC2)ccc1OCCCc1cn(CCCCCCCCn2cc(CCCOc3ccc(CN4CCN(c5ccccc5OC)CC4)cc3OC)nn2)nn1 [2a] | 22 ± 6.7 | 41 ± 19 | 84 ± 24 | 0.074 ± 0.004 | 0.65 ± 0.04 | 0.075 ± 0.005 | 0.65 ± 0.04 | 20 ± 7.1 | fraction of dimers [4]: 66%; mean apparent colocalization lifetime τ of two receptors in a dimer [4]: 1.16 s
4 | COc1ccccc1N1CCN(Cc2ccc(OCCCc3cn(CCCCCCCCn4cc(CCCOc5ccc(CN6CCN(c7ccccc7OC)CC6)cc5OCCCCN)nn4)nn3)c(OCCCCN)c2)CC1 [2b] | 3 ± 0.29 | 3 ± 0.92 | 2.6 ± 0.64 | 0.075 ± 0.004 | 0.64 ± 0.04 | 0.071 ± 0.05 | 0.67 ± 0.02 | 2.4 ± 1.1 | fraction of dimers [4]: 58%
5 | COc1cc(CN2CCN(C)CC2)ccc1OCCCc1cn(CCCCCCCCn2cc(CCCOc3ccc(CN4CCN(c5ccccc5OC)CC4)cc3OC)nn2)nn1 [3a] | 9.8 ± 9.8 | 7.3 ± 1.3 | 220 ± 83 | 0.083 ± 0.004 | 0.67 ± 0.03 | – | – | – | –
6 | COc1cc(CN2CCN(c3ccccc3OC)CC2)ccc1OCCCc1cn(CCCCCCCCn2cc(CCCOc3ccc(CN4CCN(C5CCCCC5)CC4)cc3OC)nn2)nn1 [3b] | 19 ± 8.2 | 17 ± 8.1 | 100 ± 33 | 0.083 ± 0.005 | 0.68 ± 0.04 | – | – | – | –
7 | B1 | – | – | – | – | – | – | – | – | stoichiometry N [6]: 2
8 | B2 | – | – | – | – | – | – | – | – | stoichiometry N [6]: 2
9 | B3 | – | – | – | – | – | – | – | – | percent of fluorescent spots that are dimers, labelled with antagonist 1c [7]: 29%; percent of fluorescent spots that are dimers, labelled with antagonist 4a [7]: 30%; percent of fluorescent spots that are dimers, labelled with antagonist 4b [7]: 29%; percent of fluorescent spots that are monomers, labelled with antagonist 1c [7]: 71%; percent of fluorescent spots that are monomers, labelled with antagonist 4a [7]: 70%; stoichiometry N [7]: 2; percent of fluorescent spots that are dimers, labelled with agonist 5a [8]: 45%; percent of fluorescent spots that are dimers, labelled with agonist 5b [8]: 42%
